Test results published in PMC5733478, “A Non-imaging High Throughput Approach to Chemical Library Screening at the Unmodified Adenosine-A3 Receptor in Living Cells” (Frontiers in Pharmacology, 2017).
Counter-ions that a name gives are not always drawn.

What follows are compounds tested against T1, human A3AR (Homo sapiens, UniProt P0DMS8) (assay: LOPAC library primary screen: single concentration (10 μM) inhibition of 25 nM CA200645 binding, PHERAstar FS).
T1 construct: expressed in transfected cells
T1 sequence (P0DMS8 1-318): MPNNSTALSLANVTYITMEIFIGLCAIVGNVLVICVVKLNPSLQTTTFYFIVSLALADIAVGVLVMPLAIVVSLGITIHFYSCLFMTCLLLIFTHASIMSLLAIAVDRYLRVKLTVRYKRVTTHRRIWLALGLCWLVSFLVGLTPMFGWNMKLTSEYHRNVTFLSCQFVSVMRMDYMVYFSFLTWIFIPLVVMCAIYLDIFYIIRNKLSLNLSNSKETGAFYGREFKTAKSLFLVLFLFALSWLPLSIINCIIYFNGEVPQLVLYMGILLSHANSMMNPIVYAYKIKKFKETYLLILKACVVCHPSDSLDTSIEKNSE

Row | Compound | % 25 nM CA200645 binding | hit in LOPAC primary screen (inhibited the binding of CA200645 by >40%)
1 | LY-367,265 | 64.8 ± 25.8% | 
2 | Cn1c(=O)c2[nH]cnc2n(C)c1=O.Cn1c(=O)c2[nH]cnc2n(C)c1=O.NCCN [Aminophylline ethylenediamine] | 89.2 ± 8.4% | 
3 | COc1cc2ncnc(Nc3cccc(Cl)c3)c2cc1OC [Tyrphostin AG 1478] | 90.3 ± 8.9% | 
4 | C=C[C@H]1C[N@@]2CC[C@H]1C[C@@H]2[C@@H](O)c1ccnc2ccc(OC)cc12 [Quinidine sulfate] | 111.6 ± 16.6% | 
5 | COCCCC/C(=N\OCCN)c1ccc(C(F)(F)F)cc1 [Fluvoxamine maleate] | 100.9 ± 16.7% | 
6 | C#C[C@]1(O)CC[C@H]2[C@@H]3CCC4=Cc5nc6nc7ccccc7n6cc5C[C@]4(C)[C@H]3CC[C@@]21C [WIN 62,577] | 67.3 ± 5.6% | 
7 | CC(=O)O[C@]1(C(C)=O)CC[C@H]2[C@@H]3C=C(Cl)C4=CC(=O)[C@@H]5C[C@@H]5[C@]4(C)[C@H]3CC[C@@]21C [Cyproterone acetate] | 95.6 ± 2.1% | 
8 | Br.CCCN(CCC)C1CCc2ccc(O)cc2C1 (racemic) [(±)-7-Hydroxy-DPAT hydrobromide] | 98.0 ± 1.6% | 
9 | OC[C@H]1NC[C@H](O)[C@@H](O)[C@@H]1O [1-Deoxynojirimycin hydrochloride] | 98.5 ± 11.6% | 
10 | NC(CCP(=O)(O)O)C(=O)O (racemic) [(±)-2-Amino-4-phosphonobutyric acid] | 99.9 ± 8.9% | 
11 | O=C(O)CP(=O)(O)O [Phosphonoacetic acid] | 103.4 ± 12.3% | 
12 | COc1ccccc1N1CCN(CCCNc2cc(=O)n(C)c(=O)n2C)CC1 [Urapidil hydrochloride] | 97.1 ± 1.5% | 
13 | CN(C)CC/C=C1/c2ccccc2Sc2ccc(Cl)cc21 [Chlorprothixene hydrochloride] | 96.6 ± 7.7% | 
14 | CC(N/C(=N\C#N)Nc1ccncc1)C(C)(C)C (centres unmarked) [Pinacidil] | 105.1 ± 8.3% | 
15 | CCN(CC)CCNC(=O)c1cc(S(C)(=O)=O)ccc1OC [Tiapride hydrochloride] | 98.9 ± 15.2% | 
16 | OCCN(CCO)c1nc(N2CCCCC2)c2nc(N(CCO)CCO)nc(N3CCCCC3)c2n1 [Dipyridamole] | 78.8 ± 14.8% | 
17 | NC(=O)c1ccccc1 [Benzamide] | 99.1 ± 4.7% | 
18 | CNc1cc(NS(=O)(=O)c2ccc(N)cc2)nc(NC)n1.Cl.Cl [Ro 04-6790 dihydrochloride] | 82.1 ± 15.5% | 
19 | N=C(N)N/N=C/c1c(Cl)cccc1Cl [Guanabenz acetate] | 98.2 ± 11.7% | 
20 | Nc1nc(O)c2ncn(COC(CO)CO)c2n1 [Ganciclovir] | 96.3 ± 6.5% | 
21 | NC(=NCc1ccccc1)NC(=O)c1nc(Cl)c(N)nc1N [Benzamil hydrochloride] | 95.3 ± 5.6% | 
22 | C[C@H](Cc1ccccc1)Nc1ncnc2c1ncn2[C@@H]1O[C@H](CO)[C@@H](O)[C@H]1O [R-PIA, reference compound] |  | not identified as hits
23 | O=C(O)CCC(=O)O.c1ccc(C2(c3ccccc3)CC2C2=NCCN2)cc1 (centres unmarked) [Cibenzoline succinate] | 95.2 ± 7.2% | 
24 | N[C@H](C(=O)O)c1cc(O)no1 (racemic) [(±)-Ibotenic acid] | 93.1 ± 9.6% | 
25 | COc1cc(N)c(Cl)cc1C(=O)OCCN1CCCCC1 [ML 10302] | 105.8 ± 6.4% | 
26 | CC(C)(C)c1cc(C=C(C#N)C#N)cc(C(C)(C)C)c1O [Tyrphostin A9] | 93.2 ± 14.5% | 
27 | CN(C)C(N)=NCCC[C@H](N)C(=O)O.Cl [N^G,N^G-Dimethylarginine hydrochloride] | 101.2 ± 10.7% | 
28 | CCCN1CCC[C@@H]2Cc3nc(N)ncc3C[C@H]21.Cl.Cl [Quinelorane dihydrochloride] | 105.7 ± 9.9% | 
29 | COc1cc(SC)ccc1C(=O)N1CCC(Cc2ccccc2)CC1 [JX401] | 84.6 ± 8.9% | 
